# From patent publication US20180064662A1 (THE GENERAL HOSPITAL CORPORATION, priority 2015, published 2018)
# Tests used:
# [1] = tested on: human PSC viability; experiment: MTT viability assay on PSCs; format: cell-based
# [2] = tested on: RAW 264.7 (mouse leukemic monocyte-macrophages); experiment: RAW 264.7 macrophages treated with metformin in vitro (qPCR, Western blot); format: cell-based
# Experimental: Following treatment, cells were collected for RNA and protein extraction in order to perform subsequent analysis of gene expression of cytokines and polarization markers, and for analysis of signaling and metabolic pathways. […] Cells were collected for protein extraction for analysis of the activation of fibrosis-related pathways. […] The cells were fixed with 4% paraformaldehyde and blocked with 5% normal donkey serum for 1 h. They were incubated with the designated primary antibodies overnight at 4° C. then for 2 h with the appropriate secondary antibodies at RT. PBS was used for all washes and the stained samples were mounted with Prolong Gold with DAPI. Images were acquired using a confocal microscope. The antibodies used and image acquisition settings are described below. Both cell types were grown in Dulbecco's modified Eagle's medium (Sigma, St. Louis, Mo.) supplemented with 5% (v/v) heat inactivated fetal bovine serum (FBS; Sigma), 100 units/ml penicillin and streptomycin. Cells were cultured at 37° C. in a humidified atmosphere including 5% CO2.
# Immediately following excision, tumor tissue was snap frozen and stored in liquid nitrogen. Total RNA was extracted and relative gene expression for macrophage M1/M2 markers was determined using a Sybr-green based standard protocol. In addition, total RNA was extracted and relative gene expression was determined using RT2 Profiler PCR Arrays system (Qiagen) on a Stratagene Mx3000P QPCR System using pre-made pathway-focused arrays (“Fibrosis”-Cat. Number: PAMM011Z; “Epithelial to Mesenchymal Transition (EMT)”-Cat. Number: PAMM090Z; “TGF-β signaling targets”-PAMM235Z; “Extracellular Matrix & Adhesion Molecules”-Cat. Number: PAMM013Z; and “Common cytokines ”-Cat. Number: PAMM021Z).
# Each tumor sample was homogenized directly in lysis buffer for protein extraction. 20 ug of denatured protein per sample was loaded on 7%, 10% and 12% SDS-polyacrylamide gels. Antibodies used: phospho-p38 MAPKT^180/Y182 and p38; phospho-JNK (SAPK/JNK)^Thr183/Tyr185 and JNK; phospho-AKT^Ser473 and AKT, phospho-ERK(p44/42 MAPK)^T202/Y204 and ERK; phospho-NF-κB^Ser536 and NK-κB; p65^Ser536; phospho-Smad2^Ser465/467 and Smad2; phospho-IGF-I Receptor β^Tyr1135 and IGF; Phospho-IRS-1^Ser612 and IRS; IR; phpspho-stat3^Tyr705 and stat3; Phospho-AMPKα^Thr172 and Ampkα; phospho-Ampkβ^Ser108 and Ampk; phospho-ACC^Ser79 and ACC; Phospho-PDGF Receptor β^Tyr751 and PDGF Receptor β and snail, c-cadherin and vimentin, TGF-β, β-catenin, twist, LC3B. […] Quantification of protein expression relative to total receptor or β-actin was obtained using Image J software.
# [3] = patients with type 2 diabetes taking this drug; cited from earlier work
smiles,measurement,setting,value
"CN(C)C(=N)N=C(N)N [metformin, 3-(diaminomethylidene)-1,1-dimethylguanidine]",doses at which metformin significantly reduces PSC viability,"[1]; 48 h, MTT",> 7.5 mM
same,viability of PSCs,[1]; metformin 1 mM,does not substantially affect the viability
same,activation of AMPKα and ACC in macrophages,[2]; ACC evident only in serum added media,activation of AMPKα
same,"activation of STAT3, JNK, AKT and p38 in macrophages","[2]; concentrations lower than 0.2 mM, Western blot",reduced activation
same,gene expression of M2 markers such as Arg-1 and IL-10,"[2]; metformin 0.05 mM, 48 h",reduced M2 markers
same,gene expression of M1 and M2 markers,[2]; metformin at doses higher than 0.2 mM,reduced both M1 and M2 markers
same,approximate plasma concentration of metformin,[3],~0.05 mM
